Experimental data: patent publication US20180116993A1, “MODULATORS OF FARNESOID X RECEPTOR AND METHODS FOR THE USE THEREOF” (XIAMEN UNIVERSITY, priority 2015, published 2018)
Read-outs that look alike come from different tables or passages of the source. Marks after values point to notes of the source that are not given here.

Columns and labels:
[1] = system: human breast cancer MCF7 cells; assay: MTT cell viability assay, MCF-7; type: cell-based; details: 48 h, read-out: Cell viability as a percentage of the cells treated with DMSO, MCF-7
Source text: (§1) The MTT assay is a colorimetric assay for assessing cell metabolic activity. It is widely used in high-throughput screening of antitumor drugs due to its high sensitivity and economical features. In this example, MTT was used to detect the inhibitory effects of compounds on various cancer cell lines. Cancer cells including human colorectal adenocarcinoma HCT15 cells, RA-resistant human colon cancer HCT116 cells, human cervical carcinoma Hela cells, human hepatoma HepG2 cells and human breast cancer MCF7 cells were cultured in DMEM medium containing 10% fetal bovine serum. 20 uM or 40 uM of compounds were administered to treat cells, cell viability is detected by MTT assay and expressed as a percentage of the cells treated with DMSO (Table 4).

full-length FXR = molecular target: T1, full-length FXR (Homo sapiens, UniProt Q96RI1); assay: Cell-based FXR transactivation, EcRE luciferase reporter in COS-7 cells; details: Table 2; for Cell-based FXR transactivation Fold changes by 5 μM compound: positive: induction, minus: repression; for EC50: EcRE luciferase reporter
T1 construct: The cells were co-transfected with plasmids encoding full-length FXR and the cognate luciferase reporter EcRE-Luc; expressed in transfected cells; host or cells: COS-7
T1 sequence (Q96RI1 1-486): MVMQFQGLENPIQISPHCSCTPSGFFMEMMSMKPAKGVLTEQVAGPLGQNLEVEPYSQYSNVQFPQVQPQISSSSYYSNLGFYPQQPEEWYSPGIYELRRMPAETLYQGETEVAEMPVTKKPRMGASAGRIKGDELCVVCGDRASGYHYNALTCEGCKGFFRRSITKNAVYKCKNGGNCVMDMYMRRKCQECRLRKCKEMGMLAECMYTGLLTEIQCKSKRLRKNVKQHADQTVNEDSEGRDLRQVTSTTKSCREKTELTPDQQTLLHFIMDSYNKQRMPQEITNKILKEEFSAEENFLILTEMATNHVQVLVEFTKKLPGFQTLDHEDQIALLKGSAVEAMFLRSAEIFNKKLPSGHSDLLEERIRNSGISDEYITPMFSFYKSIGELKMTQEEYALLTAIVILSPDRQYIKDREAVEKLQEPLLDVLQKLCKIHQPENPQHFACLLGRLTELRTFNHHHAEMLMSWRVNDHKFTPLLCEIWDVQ
Method: COS-7 cells were cotransfected with plasmids encoding full length FXR.
For transient transfection assay, COS-7 cells were maintained in DMEM containing 10% fetal bovine serum and were transiently transfected using Lipofectamine 2000 (Invitrogen). Before 24 h of transfection, 24-well plates were plated. The cells were co-transfected with plasmids encoding full-length FXR and the cognate luciferase reporter EcRE-Luc. Ligands were added 5 hours after transfection. Cells were harvested 24 hours later for the luciferase assays according to the manufacturer's instructions (Dual-Luciferase® Reporter Assay System, Promega). Luciferase activities were normalized to renilla activity co-transfected as an internal control.

[2] = system: human hepatoma HepG2 cells; assay: MTT cell viability assay, HepG2; type: cell-based; details: 48 h, read-out: Cell viability as a percentage of the cells treated with DMSO, HepG2
Source text: as §1

db/db mice [3] = assay: Serum/blood metabolic parameters in high-fat diet fed db/db mice; type: in vivo, mouse; details: 10 mg/kg, treat for 10 days, vehicle 527 ± 63
Source text: KK-Ay mice (KK/Upj-Ay/J) are animal models with moderate obese and diabetes with insulin resistance. KK-Ay mice develop hyperglycemia, hyperinsulinemia, glucose intolerance and obesity as well as fat accumulation in liver by eight weeks of age. Pancreatic islets are hypertrophied and the β-cells are degranulated. db/db mice (BKS.Cg-Dockr+/+ Lepr^db/Jnju) are animal models of type II diabetes. They have the phenotype of insulin resistance. These model mice were used to detect the functions of our compounds on metabolic diseases.
8-10 weeks age mice were maintained as example 4, and fed with high-fat diet (Research Diets, D12492). Mice were i.p. injected with compounds once daily for 7, 10, 11 or 14 days as indicated in each table. After the last compounds injection, mice were fasted for 6 hours with free access to water, and then sacrificed. Part of each liver was fixed in 4% paraformaldehyde for H&E staining, and other liver tissues were stored in liquid nitrogen for enzyme activity measurement and gene expression analysis by RT-PCR. The serums were collected to measure metabolic parameters, including serum glucose, insulin, cholesterol, free fatty acid (FFA) and triglyceride levels. Serum glucose was analyzed using glucose oxidase method (Applygen, Beijing, China). The blood glucose in Table 11 was measured with Berenger blood glucose test strips (B/BRAUN, German) from blood by cutting mice tail after the 6th injection and following fast for 16 hours. Serum cholesterol and FFA were analyzed using Cholesterol Assay Kit and FFA Assay Kit (Bioassay Systems, USA; Nanjing Jiancheng Bioengineering Institute, China; FFA ELISA, R&D, USA), respectively. Serum triglyceride was analyzed using Triglyceride Assay Kit (Bioassay Systems, USA; WAKO Chemicals Inc., Japan; Applygen, Beijing, China). Liver triglyceride was analyzed using Tissue triglyceride assay kit (Applygen, Beijing, China). Serum insulin levels were measured by the Ultra Sensitive Mouse Insulin ELISA Kit (Crystal Chem. Inc., USA). RNA was isolated using Tissue RNA kit (Omega Bio-Tek, GA). The first strand cDNA were obtained by TAKARA reverse transcription kit. Real-time quantitative PCR were performed on a CFX96™ Real-Time PCR Detection System (Bio-Rad) using SYBR Premix Ex Taq™ (TAKARA). Relative mRNA expression levels were normalized to actin levels. […]

db/db mice [4] = assay: Hepatic triglyceride, liver histology, serum ALT and ALP in high-fat diet fed db/db mice; type: in vivo, mouse; details: 10 mg/kg for 10 days
Method: Liver tissues fixed in 4% paraformaldehyde in example 5 were performed for H&E staining by standard procedures. Liver tissues fixed in 4% paraformaldehyde were embedded in optimum cutting temperature compound (OCT), and cryosectioned. Frozen liver sections were stained with 0.3% oil red O according to standard procedures.
The triglyceride levels in liver tissues from mice treated with compounds were analyzed using Tissue triglyceride assay kit (Applygen, Beijing, China).
Alkaline Phosphatase (ALP) is a marker of cholestasis. Cholestasis can be suspected when there is an elevation of ALP enzymes. In fact, greater than 90% of patients with bile stasis will have an elevated alkaline phosphatase. […] The aminotransferase is used to evaluate the presence of hepatitis and may be elevated in cholestasis or with common bile duct obstruction. In this example, 8-10 week age db/db mice were fed with high-fat diet and treated with 10 mg/kg of compounds once daily for 10 days as in Example 5. The activities of serum ALP and ALT were analyzed using ALP kit and ALT kit, respectively (Nanjing Jiancheng Engineering Institute, China).

[5] = system: human colorectal adenocarcinoma HCT15 cells; assay: MTT cell viability assay, HCT15; type: cell-based; details: 48 h, read-out: Cell viability as a percentage of the cells treated with DMSO, HCT15; for viability at 20 µM: HCT-15, 20 uM; for viability at 40 µM: HCT-15, 40 uM
Source text: as §1

[6] = system: human cervical carcinoma Hela cells; assay: MTT cell viability assay, Hela; type: cell-based; details: 48 h, read-out: Cell viability as a percentage of the cells treated with DMSO, Hela
Source text: as §1

[7] = system: RA-resistant human colon cancer HCT116 cells; assay: MTT cell viability assay, HCT116; type: cell-based; details: 48 h, read-out: Cell viability as a percentage of the cells treated with DMSO, HCT116; for viability at 20 µM: HCT-116, 20 uM; for viability at 40 µM: HCT-116, 40 uM
Source text: as §1

[8] = system: inflammatory cytokines in tissues of db/db mice; assay: Inflammatory cytokine mRNA levels in tissues of high-fat diet fed db/db mice (RT-PCR); type: in vivo, mouse; details: 5 mg/kg
Source text: In this example, we detected the levels of various inflammatory cytokines including iNOS, IFNγ, TGFβ, TNFα, COX2, IL-1β, IL-6, SAA1, MIP-1α and CD36 in liver, kidney, white adipose tissue (WAT) in various mice models, including wild type mice treated with APAP in example 4, high-fat diet fed diabetic and obesity db/db and KK-Ay mice in example 5, high-fat diet fed wild-type mice in Example 5, as well as in primary hepatocytes with LPS induced inflammation, using RT-PCR.

[9] = molecular target: T2, FXR ligand binding domain (LBD) (Homo sapiens, UniProt Q96RI1); assay: AlphaScreen assay: FXR LBD recruitment of coregulator peptide motifs (SRC2-3, SRC1-2); type: biochemical; details: Table 2
T2 construct: made in house
T2 sequence (Q96RI1 262-486 limits assumed): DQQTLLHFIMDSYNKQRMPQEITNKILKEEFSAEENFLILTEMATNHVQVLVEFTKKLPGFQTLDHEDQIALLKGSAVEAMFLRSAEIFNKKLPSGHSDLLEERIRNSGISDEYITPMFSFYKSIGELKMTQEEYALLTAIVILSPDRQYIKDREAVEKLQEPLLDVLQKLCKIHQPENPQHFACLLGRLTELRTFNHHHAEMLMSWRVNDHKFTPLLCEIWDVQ
Method: In search of novel ligands for FXR, we used FXR ligand binding domain (LBD) as a bait to screen chemical libraries based on AlphaScreen biochemical assay, which determines the efficacy of small molecules in influencing binding affinity of FXR with coregulator peptides (see e.g., Jin et al., (2013) Nature communications 4, 1937).
The binding of the cofactor peptide motifs to FXR ligand binding domain (LBD) in response to ligands was determined by AlphaScreen assays using a hexahistidine detection kit from Perkins-Elmer. The FXR LBD protein was purified as described previously (see e.g., Jin et al., (2013) Nature communications 4, 1937). The experiments were conducted with approximately 20-40 nM receptor LBD and 20 nM biotinylated cofactor peptides in the presence of 5 μg/ml donor and acceptor beads in a buffer containing 50 mM MOPS, 50 mM NaF, 0.05 mM CHAPS, and 0.1 mg/ml bovine serum albumin, all adjusted to a pH of 7.4.

[10] = SRC1-2 peptide, read-out: EC50 (μM) of FXR binding by AlphaScreen assay recruit SRC1-2
[11] = SRC2-3 peptide, read-out: EC50 (μM) of FXR binding by AlphaScreen assay recruit SRC2-3

| Compound | viability at 20 µM [1] [%] | viability at 40 µM [1] [%] | Cell-based FXR transactivation Fold changes by 5 μM compound (full-length FXR) | EC50 (full-length FXR) [µM] | viability at 20 µM [2] [%] | viability at 40 µM [2] [%] | Serum Glucose (mg/dl) (db/db mice [3]) | Hepatic triglyceride (mM/g) (db/db mice [4]; vehicle 148 ± 14) | Serum ALT (U/L) (db/db mice [4]; vehicle 377 ± 48, Table 15) | viability at 20 µM [5] [%] | viability at 40 µM [5] [%] | viability at 20 µM [6] [%] | viability at 40 µM [6] [%] | viability at 20 µM [7] [%] | viability at 40 µM [7] [%] | mRNA level of iNOS (fold), Liver tissue ([8]; vehicle 1.06 ± 0.14) | mRNA level of iNOS (fold), Colon tissue ([8]; vehicle 1.12 ± 0.23) | EC50 [9, 10] [µM] | EC50 [9, 11] [µM] |
| --- | --- | --- | --- | --- | --- | --- | --- | --- | --- | --- | --- | --- | --- | --- | --- | --- | --- | --- | --- |
| O=C(OC1CC2CCC1C2)c1ccc([N+](=O)[O-])cc1 (centres unmarked) [XD-25, bicyclo[2.2.1]-heptan-2-yl 4-nitrobenzoate] | 100 ± 2 | 97 ± 2 | 1.5 | < 1 | 100 ± 5 | 90 ± 4 | 389 ± 47^a mg/dl | 116 ± 5 ^c mM/g | 124 ± 21 ^a U/L | 100 ± 4 | 89 ± 4 | 100 ± 2 | 100 ± 2 | 79 ± 2 | 66 ± 5 | – | – | – | – |
| Cc1cc(C(=O)OC2CC3CCC2(C)C3(C)C)ccc1[N+](=O)[O-] (centres unmarked) [XD-15, 1,7,7-trimethyl-bicyclo[2.2.1]-heptan-2-yl 3-methyl-4-nitro-benzoate] | 81 ± 4 | 70 | 3 | 1 to 10 | 79 | 72 ± 3 | – | – | – | 100 ± 2 | 62 ± 3 | 89 ± 6 | 70 ± 3 | 59 ± 3 | 40 ± 3 | 0.47 ± 0.21^a fold | 0.41 ± 0.16^a fold | – | – |
| O=C(OC1CCC2CCCCC2C1)c1ccc(F)cc1 (centres unmarked) [XD-33, decahydro-naphthalen-2-yl 4-fluorobenzoate] | 100 ± 2 | 95 ± 2 | 2 | 1 to 10 | 100 ± 2 | 95 ± 2 | 400 ± 23^a mg/dl | – | – | 100 ± 2 | 100 ± 2 | 97 ± 2 | 98 ± 2 | 97 ± 2 | 95 ± 2 | – | – | < 1 | < 1 |
| Cc1cc(C(=O)OC2CCC3CCCCC3C2)ccc1N (centres unmarked) [XD-31, decahydro-naphthalen-2-yl 4-amino-3-methylbenzoate] | 100 ± 1 | 100 ± 1 | −5 | < 1 | 100 ± 1 | 90 ± 1 | 326 ± 51^a mg/dl | – | – | 100 ± 1 | 41 ± 1 | 74 | 42 ± 1 | 63 ± 1 | 59 ± 1 | – | – | < 1 | < 1 |
| O=C(OC1CCCCCCC1)c1ccc([N+](=O)[O-])cc1 [XD-24, cyclooctyl 4-nitrobenzoate] | – | – | 1.2 | < 1 | – | – | 307 ± 39^a mg/dl | – | – | – | – | – | – | – | – | – | – | – | – |
